Measurements: paper PMC3966885, “F9 Fimbriae of Uropathogenic Escherichia coli Are Expressed at Low Temperature and Recognise Galβ1-3GlcNAc-Containing Glycans” (PLoS ONE, 2014)

Molecular target: T1, F9 fimbriae (F9 adhesin) (Escherichia coli, UniProt A0A0H2V7F6)
T1 construct: gene ydeQ; whole F9 fimbriae (six-gene operon c1931-c1936, plasmid pF9, ara promoter) over-expressed on GFP-labelled E. coli K-12 MG1655fim (MS428); mature adhesin 280 aa, N-terminal lectin domain 160 aa
Assay: glycan array with whole GFP-labelled F9 over-expressing E. coli
Format: cell-based
Details: glycan printed on super epoxy slide; PBS with 2 mM MgCl2 and CaCl2, room temperature; also used free at 50 μM as competitor

T1 sequence (A0A0H2V7F6 entry or part of it): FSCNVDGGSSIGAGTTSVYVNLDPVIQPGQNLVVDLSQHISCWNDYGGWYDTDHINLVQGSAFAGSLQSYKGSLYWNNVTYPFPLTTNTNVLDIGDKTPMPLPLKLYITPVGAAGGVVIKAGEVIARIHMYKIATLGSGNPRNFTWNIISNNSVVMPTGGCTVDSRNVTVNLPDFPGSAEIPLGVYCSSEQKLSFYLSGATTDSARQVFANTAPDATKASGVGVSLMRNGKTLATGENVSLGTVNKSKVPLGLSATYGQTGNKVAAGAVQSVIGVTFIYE

Structure (SMILES): CC(=O)N[C@H]1[C@H](O[C@H]2[C@@H](O)[C@@H](CO)O[C@@H](O[C@H]3[C@H](O)[C@@H](O)C(O)O[C@@H]3CO)[C@@H]2O)O[C@H](CO)[C@@H](O)[C@@H]1O[C@@H]1O[C@H](CO)[C@H](O)[C@H](O)[C@H]1O (stereo partly shown) [lacto-N-tetraose, Galβ1-3GlcNAcβ1-3Galβ1-4Glc]
- glycan array with whole GFP-labelled F9 over-expressing E. coli: Of the glycans that were bound by F9 fimbriae, lacto-N-tetraose displayed the highest affinity
